The results in this text go back to patent US20050080113A1, “Medicinal compositions” (priority 2001, published 2005).

In series [1] the test system is TNF-α production. In words: Measurement of inhibiting activity of TNF-α production in LPS-stimulated THP-1 cells, ELISA (Reference Example C 2). In kind it is cell-based. The conditions noted are these: Homo sapiens, LPS 5 μg/mL, 4 hours, read-out: IC50 (concentration necessary for inhibiting TNF-α production by 50%). As to the method: (§1) Measurement of Inhibiting Activity of TNF-α Production
After THP-1 cells which had been cultured on PRMI 1640 medium (manufactured by Life Technologies, Inc.) containing 1% inactivated bovine fetal serum (manufactured by Life Technologies, Inc., U.S.A.) and 10 mM HEPES (pH 7.5) seeded on a 96 well-plate to 1×10^5 cells/well, 1 μL test compound dissolved in DMSO was added. After incubation at 37° C. for 1 hour in a CO2 incubator, LPS (Wako Pure Chemicals) was added to the final concentration 5 μg/mL. After cultured at 37° C. for 4 hours in a CO2 incubator, the supernatant was obtained by centrifugation. The concentration of TNF-α in the supernatant was measured by ELISA (R&D Systems, Quantikine Kit). The concentration (IC50 value) of the test compound necessary for inhibiting TNF-α production by 50% was calculated using PRIMS 2.01 (Graphpad Software).
For orientation: In an ELISA, binding on a coated surface is turned into a signal by an enzyme label.

A further series deals with T1, human p38 MAP kinase (Homo sapiens, UniProt Q16539).
T1 construct: made in house; host or cells: Sf-21 insect cells, baculovirus (BAC-HP38 co-infected with BAC-caMKK3)
The experiment in a line: Measurement of the p38 MAP kinase inhibitory activity, 32P uptake into Myelin Basic Protein (Reference Example F 2). The series is classed as biochemical. The conditions noted are these: active form p38 MAP kinase, 30° C. 60 minutes, read-out: IC50 (p38 MAP kinase inhibitory activity, uptake of 32P into acid insoluble fraction). How it is done:
The genetic manipulations described below were according to the methods described in the book (Maniatis et al., Molecular Cloning, Cold Spring Harbor Laboratory, 1989) or a method described in the protocol attached to the reagent.
(1) Cloning of Human p38 MAP Kinase Gene and Preparation of Recombinant Baculovirus
Cloning of human p38 MAP kinase gene was performed by a PCR method using a primer set P38 U: 5′-[…]-3′ [SEQ ID NO:9] and PAG-L: 5′-[…]-3′ [SEQ ID NO:10] made by reference to the base sequence of p38 MAP kinase gene reported by Han et al. (Science 265 (5173), 808 811 (1994)) and employing kidney cDNA (Toyobo, QUICK-Clone cDNA) as a template.
A PCR reaction was performed by a Hot Start method using AmpliWax PCR Gem 100 (Takara Shuzo). As the lower mixed solution, 2 μL 10×LA PCR Buffer, 3 μL 2.5 mM dNTP solution, each 2.5 μL of 12.5 μM primer solution, and 10 μL sterile distilled water were mixed. As the upper mixed solution, 1 μL human cardiac cDNA (1 ng/mL) as a template, 3 μL 10×LA PCR Buffer, 1 μL 2.5 mM dNTP solution, 0.5 μL TaKaRa LA Taq DNA polymerase (Takara Shuzo), and 24.5 μL sterile distilled water were mixed. One AmpliWax PCR Gem 100 (Takara Shuzo) was added to the prepared lower mixed solution to treat at 70° C. for 5 minutes and for 5 minutes in an ice and, thereafter, the upper mixed solution was added to prepare a reaction solution for PCR. A tube containing the reaction solution was set at a thermal cycler (Perkin Elmer), which was treated at 95° C. for 2 minutes. Further, after repeating 35 times a cycle of 15 seconds at 95° C. and 2 minutes at 68° C., treatment was performed at 72° C. for 8 minutes. The resulting PCR product was subjected to agarose gel (1%) electrophoresis, 1.1 kb DNA fragment containing p38 MAP kinase gene was recovered from the gel and, thereafter, which was inserted into pT7Blue-T vector (Takara Shuzo) to make the plasmid pHP38.
The 4.8 kb XhoI-KpnI fragment of the plasmid pFASTBAC1 (CIBCOBRL) and the 1.1 kb XhoI-Kpn fragment of the above plasmid pHP38 were ligated to make the plasmid pFBHP38.
The plasmid pFBHP38 and BAC-TO-BAC Baculovirus Expression System (GIBCOBRL) were used to prepare the recombinant Baculovirus virusstock BAC-HP38.
(2) Cloning of Human MKK3 Gene and Preparation of Recombinant Baculovirus
Cloning of human MKK3 gene was performed by a PCR method using a primer set MKK-U: 5′-[…]-3′ [SEQ ID NO:11] and MKK-L: 5′-[…]-3′ [SEQ ID NO:12] made by reference to the base sequence of MKK3 gene reported by Derijard, B. et al., Science 267 (5198), 682 685 (1995) and using kidney cDNA (Toyobo, QUICK-Clone cDNA).
A PCR reaction was performed by a Hot Start method using AmpliWax PCR Gem 100 (Takara Shuzo). As the lower mixed solution, 2 μL 10×LA PCR Buffer, 3 μL 2.5 mM dNTP solution, each 2.5 μL of 12.5 μM primer solution, and 10 μL sterile distilled water were mixed. As the upper mixed solution, 1 μL human kidney cDNA (1 ng/mL), 3 μL 10×LA PCR Buffer, 1 μL 2.5 mM dNTP solution, 0.5 μL TaKaRa LA taq DNA polymerase (Takara Shuzo) and 24.5 μL sterile distilled water were mixed. One AmpliWax PCR Gem 100 (Takara Shuzo) was added to the prepared lower mixed solution to treat at 70° C. for 5 minutes and for 5 minutes in ice and, thereafter, the upper mixed solution was added to prepare a reaction solution for PCR. A tube containing the reaction solution was set at a thermal cycler (Perkin Elmer), which was treated at 95° C. for 2 minutes. Further, after repeating 35 times a cycle of 15 seconds at 95° C. and 2 minutes at 68° C., treatment was performed at 72° C. for 8 minutes. The resulting PCR product was subjected to agarose gel (1%) electrophoresis, 1.0 kb DNA fragment containing MKK3 gene was recovered from the gel and, thereafter, which was inserted into pT7Blue-T vector (Takara Shuzo) to make the plasmid pHMKK3. […]

Series [2] concerns TNF-α production. In words: Measurement of inhibiting activity of TNF-α production in LPS-stimulated THP-1 cells, ELISA (Reference Example F 3). In kind it is cell-based. The conditions noted are these: Homo sapiens, LPS 5 μg/mL, 4 hours, ELISA (R&D System). How it is done: as §1
After THP-1 cells which had been cultured in PRMI 1640 medium (manufactured by Life Technologies, Inc.) containing 1% non-activated bovine fetal serum (manufactured by Life Technologies, Inc., U.S.A.) and 10 mM HEPES (pH 7.5) seeded on a 96 well plate to 1×10^5 cells/well, 1 μL test compound dissolved in DMSO was added to there. After incubation at 37° C. for 1 hour in a CO2 incubator, LPS (Wako Pure Chemicals) was added to the final concentration 5 μg/mL. After cultured at 37° C. for 4 hours in a CO2 incubator, the supernatant was obtained by centrifugation. The concentration of TNF-α in the supernatant was measured with ELISA (R&D System, Quantikine Kit). The concentration (IC50 value) necessary for inhibiting TNF-α production by 50% was calculated by PRIMS 2.01 (Graphpad Software).

A short description of series [3]: Test using rat yeast-induced pain model animal (pain threshold, pressure device), Example 1. The series is classed as in vivo. The conditions noted are these: oral, pain threshold 2 hours after administration. As to the method: Male Sprague-Dawley rats (4 week-old, Clear Japan) were used. A 20% yeast physiological saline solution (0.1 ml) was subcutaneously injected into right hind pedal sole to induce inflammation in the right hind pedal sole. One hour later, 0.5% aqueous methyl cellulose or Reference Example D compound 16 1 suspended in 0.5% aqueous methyl cellulose was orally administered (0.5 ml/100 g body weight). After 2 hours from sample administration, pain threshold value was measured based on false escape reaction using a pressure device. A group contained 6 rats.

The test system of series [4] is osteoclast formation in mouse bone marrow cells. The experiment in a line: Inhibitory action of osteoclast formation (TRAP positive multinucleated cells, bone marrow cell culture), Example 2. The series is classed as cell-based. The conditions noted are these: for Osteoclast count (/well): 6 days, TRAP positive multinucleated cells, average ± standard deviation (N = 4-5). As to the method:
Bone marrow cells were collected from the tibia of 8-week-old male ddY mouse and suspended in αMEM medium containing 10% FBS and sown in a 24 well plate at a density of 10^6 cells/0.5 ml/well. After static culture overnight, the medium was changed to the above-mentioned medium containing 10^−8 M 1α, 25 (OH)2D3 or Reference Example D compound 16 1 at 0.01, 0.1, 1 or 10 μM, respectively and further cultured for 6 days. After the completion of the culture, the cells were fixed and subjected to staining of tartrateresistant acid phosphatase (TRAP), which is a differentiation index of osteoclast, and TRAP positive multinucleated cells with three or more nuclei were counted as osteoclasts with a microscope.

As a reminder, the melting point is the temperature of the solid-liquid transition.

T1 sequence (Q16539 whole entry): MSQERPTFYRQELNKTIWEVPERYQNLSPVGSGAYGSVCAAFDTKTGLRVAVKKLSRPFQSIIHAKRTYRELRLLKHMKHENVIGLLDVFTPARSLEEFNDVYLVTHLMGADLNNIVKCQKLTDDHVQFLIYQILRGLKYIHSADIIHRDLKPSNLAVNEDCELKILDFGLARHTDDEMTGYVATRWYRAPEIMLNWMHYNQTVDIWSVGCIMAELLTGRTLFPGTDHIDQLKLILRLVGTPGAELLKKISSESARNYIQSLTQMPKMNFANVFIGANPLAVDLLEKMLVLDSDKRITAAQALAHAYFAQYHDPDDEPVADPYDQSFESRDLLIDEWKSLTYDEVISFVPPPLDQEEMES

Compound `CNc1nc(-c2ccc(OC)cc2)c(-c2ccncc2)s1` [13-16, N-methyl [4-(4-methoxyphenyl)-5-(4-pyridyl)-1,3-thiazol-2-yl]amine] displayed a melting point of 177 to 178 °C. Besides, the IC50 in the series with TNF-α production [1] is 140 nM.
The corresponding values for `CNc1nc(-c2ccc(Cl)cc2)c(-c2ccncc2)s1` [13-70, N-methyl [4-(4-chlorophenyl)-5-(4-pyridyl)-1,3-thiazol-2-yl]amine] are 224 to 225 °C and 180 nM.
On to `COc1ccc(-c2nc(N)sc2-c2ccnc(NC(=O)c3ccccc3)c2)cc1` [D 4, N-[4-[2-amino-4-(4-methoxyphenyl)-1,3-thiazol-5-yl]-2-pyridyl]benzamide], for which the values for the IC50 at human p38 MAP kinase and in the series on TNF-α production [2] were 20 nM and 14 nM, respectively.
For `Cc1cc(C)cc(-c2nc(N)sc2-c2ccnc(NCc3ccccc3)c2)c1` [D 6, N-[4-[2-amino-4-(3,5-dimethylphenyl)-1,3-thiazol-5-yl]-2-pyridyl]benzylamine] the same measures were 23 nM and 140 nM.
Regarding `CCc1nc(-c2cccc(C)c2)c(-c2ccnc(NC(=O)c3ccccc3)c2)s1` [D 16-1, N-[4-[2-ethyl-4-(3-methylphenyl)-1,3-thiazol-5-yl]-2-pyridyl]benzamide], in series [3], the antinociceptive effect entry is listed as “dose-dependent antinociceptive effect”. In addition, the “minimum effective dose (antinociceptive effect)” value in series [3] was 10 mg/kg. Moreover, the number of osteoclasts entry in series [4] (0.01, 0.1, 1 or 10 μM) is listed as “decreased in a dose-dependent manner”. For the same compound, the IC50 in series [4] (144 h, mouse bone marrow cells, 1α,25(OH)2D3, 6 days culture, read-out: IC50 value against formation of osteoclast) was found to be 300 nM. Also, the formation of osteoclast entry in series [4] (at 10 μM) is on record as “barely observed”. In addition, the “Osteoclast count (/well)” value in series [4] (concentration 0.01 μM, mouse bone marrow cells) is on record as 183.8 ± 2.9 /well; in series [4] (concentration 0.1 μM, mouse bone marrow cells), 140.8 ± 7.6 /well; in series [4] (concentration 1 μM, mouse bone marrow cells), 72.4 ± 4.4 /well; in series [4] (concentration 10 μM, mouse bone marrow cells), 0.6 ± 0.4 /well. In series [4] (mouse bone marrow cells, 0.01-10 μM tested), the “concentration from which the action on osteoclast number was found significantly” value is 0.1 µM.
